Source: PubChem BioAssay (NCI)
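How tested: cells in 96-well plates exposed to compound for 48 hours at five concentrations. GI50: concentration for 50% inhibition of growth. TGI marks complete inhibition of growth.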

Tests used:
Experiment in all cases: DTP human tumour cell line panel, 48 h
[1] = test system: HT29 colon
[2] = test system: UO-31 renal
[3] = test system: MOLT-4 leukemia
[4] = test system: HCC-2998 colon
[5] = test system: NCI-H226 lung
[6] = test system: ACHN renal
[7] = test system: UACC-257 melanoma
[8] = test system: HCT-116 colon
[9] = test system: T-47D breast
[10] = test system: DU-145 prostate

Compound `Clc1ccc(SC(/C=C/NNC2=NC(c3ccccc3)C(c3ccccc3)=NN2)c2ccccc2)cc1` (configuration not stated) has a TGI [1] of 39.3 µM, a TGI [2] of 38.8 µM and a TGI [3] of 38.4 µM. The TGI [4] was 44.3 µM, the TGI [5] was 62.7 µM and the TGI [6] was > 100 µM. For the same compound, the TGI [7] was 55.2 µM and the TGI [8] was 92 µM.

`CN(C)CC(C)(C)C(=O)/C=C/c1ccc(/C=C/C(=O)C(C)(C)CN(C)C)cc1` gave a TGI [1] of 1.77 µM, a TGI [2] of 3.49 µM and a TGI [4] of 3.04 µM. The TGI [5] was 4.93 µM, the TGI [6] was 2.84 µM and the TGI [7] was 3.83 µM. It also gave a TGI [8] of 2.55 µM.

`O=C1c2ccccc2C(Br)(Br)c2ccccc21` was tested, and the TGI [1] was > 100 µM, the TGI [2] was > 31.6 µM and the TGI [3] was > 31.6 µM. The TGI [4] was > 31.6 µM, the TGI [5] was > 31.6 µM and the TGI [6] was > 31.6 µM. For the same compound, the TGI [7] was > 100 µM and the TGI [8] was > 31.6 µM.

In the case of `FC(F)(F)c1nc2nc(Cl)c(Cl)nc2n1CCCN1CCOCC1`, the TGI [1] is reported as > 100 µM, the TGI [3] is reported as 48.6 µM and the TGI [9] is reported as > 100 µM. For the same compound, the TGI [5] was > 100 µM, the TGI [6] was > 100 µM and the TGI [7] was 64 µM. The TGI [10] was 63.2 µM and the TGI [8] was > 100 µM.

Work on `CC(C)(C)C(=O)c1c(C(F)(F)F)n([O-])c2ccccc2[n+]1=O` yielded a GI50 [1] of 0.368 µM, a GI50 [2] of 0.342 µM and a TGI [2] of 0.729 µM. The GI50 [3] was 0.157 µM, the TGI [3] was 0.853 µM and the GI50 [9] was 0.597 µM. For the same compound, the TGI [9] was 1.78 µM, the GI50 [5] was 0.84 µM and the TGI [5] was 2.48 µM. It also gave a GI50 [6] of 0.272 µM, a TGI [6] of 0.743 µM and a GI50 [7] of 1.46 µM. The TGI [7] was 5.57 µM, the GI50 [10] was 0.356 µM and the TGI [10] was 0.892 µM. It also gave a GI50 [8] of 0.619 µM and a TGI [8] of 1.59 µM.

`C[N-]c1nnnn1C.[Au+].c1ccc([PH+](c2ccccc2)c2ccccc2)cc1` was tested, and the GI50 [1] was 2 µM, the TGI [1] was 4.53 µM and the GI50 [2] was 12.7 µM. For the same compound, the TGI [2] was 25.3 µM, the GI50 [3] was 1.62 µM and the TGI [3] was 4.22 µM. For the same compound, the GI50 [4] was 4.06 µM, the TGI [4] was 9.23 µM and the GI50 [5] was 4.98 µM. For the same compound, the TGI [5] was 14 µM, the GI50 [6] was 4.26 µM and the TGI [6] was 8.38 µM. It also gave a GI50 [7] of 2.03 µM, a TGI [7] of 6.51 µM and a GI50 [8] of 11.7 µM. It also gave a TGI [8] of 23.9 µM.

`C=C1C(O)C2C(=C(CCc3ccccc3)C13CC3)C(=O)C(C)(CO)C2O` (configuration not stated) was tested, and the GI50 [1] was > 100 µM, the TGI [1] was > 100 µM and the GI50 [2] was > 100 µM. For the same compound, the TGI [2] was > 100 µM, the GI50 [3] was 64.1 µM and the TGI [3] was > 100 µM. The GI50 [4] was > 100 µM, the TGI [4] was > 100 µM and the GI50 [5] was > 100 µM. The TGI [5] was > 100 µM, the GI50 [6] was > 100 µM and the TGI [6] was > 100 µM. For the same compound, the GI50 [7] was > 100 µM, the TGI [7] was > 100 µM and the GI50 [10] was > 100 µM. The TGI [10] was > 100 µM.

`COc1ccc(-c2cn[nH]c2-c2cc(OC)c3c(c2)OCO3)cc1` was tested, and the GI50 [1] was 0.102 µM, the TGI [1] was 12.1 µM and the GI50 [2] was 0.669 µM. The TGI [2] was 23.1 µM, the GI50 [3] was 0.541 µM and the TGI [3] was 15.1 µM. For the same compound, the GI50 [4] was 0.649 µM, the TGI [4] was 11.8 µM and the GI50 [5] was 1.34 µM. The TGI [5] was 22.3 µM, the GI50 [6] was 0.78 µM and the TGI [6] was 48.8 µM. The GI50 [10] was 0.402 µM, the TGI [10] was 14.9 µM and the GI50 [8] was 0.277 µM. It also gave a TGI [8] of 11.7 µM.

`O=C(O)CCCCCCC[C@H]1S[C@H]1CCCCCCO` was tested, and the TGI [1] was > 100 µM, the TGI [2] was > 100 µM and the TGI [3] was > 100 µM. For the same compound, the TGI [4] was > 100 µM and the TGI [8] was > 100 µM.

With `CC(C)CC(NC(=O)c1cccc(O)c1O)C(=O)NCc1cc(CNC(=O)C(CC(C)C)NC(=O)c2cccc(O)c2O)cc(CNC(=O)C(CC(C)C)NC(=O)c2cccc(O)c2O)c1` (configuration not stated) the TGI [1] was 30.9 µM, the TGI [2] was 70.1 µM and the TGI [3] was 37.9 µM. The TGI [4] was 20.6 µM, the TGI [5] was 60.2 µM and the TGI [6] was > 100 µM. It also gave a TGI [7] of 58.9 µM and a TGI [8] of 38.4 µM.

In the case of `COC(=O)[C@@H](C)C[C@H](Cc1ccccc1)NC(=O)c1csc(CC[C@H](C(C)C)N(C)C(=O)[C@@H](NC(=O)[C@H]2CCCCN2C)C(C)C)n1`, the GI50 [1] is reported as 0.211 µM, the TGI [1] is reported as 6.01 µM and the GI50 [2] is reported as 1.66 µM. The TGI [2] was > 33.3 µM, the GI50 [3] was 0.44 µM and the TGI [3] was > 33.3 µM. For the same compound, the GI50 [4] was 0.562 µM, the TGI [4] was > 33.3 µM and the GI50 [5] was 0.856 µM. The TGI [5] was > 23.9 µM, the GI50 [6] was 0.324 µM and the TGI [6] was > 33.3 µM. The GI50 [7] was > 33.3 µM, the TGI [7] was > 33.3 µM and the GI50 [10] was 0.303 µM. The TGI [10] was > 19.7 µM, the GI50 [8] was 0.235 µM and the TGI [8] was > 14.8 µM.

For `CC(=O)[CH-]C(C)=O.CC(=O)[CH-]C(C)=O.[CH2-]CCC.[CH2-]CCC.[Sn+4]`, the GI50 [1] was 1.28 µM, the TGI [1] was 2.59 µM and the GI50 [2] was 1.03 µM. The TGI [2] was 2.21 µM, the GI50 [3] was 0.37 µM and the TGI [3] was > 100 µM. The GI50 [5] was 1.77 µM, the TGI [5] was 3.45 µM and the GI50 [6] was 0.487 µM. For the same compound, the TGI [6] was 1.66 µM, the GI50 [7] was 0.376 µM and the TGI [7] was 1.68 µM. For the same compound, the GI50 [8] was 0.65 µM and the TGI [8] was 1.96 µM.

`[Cl-].[O-]/N=C(\c1ccccc1)c1ccccn1.[O-]/N=C(\c1ccccc1)c1ccccn1.[O-]/N=C(\c1ccccc1)c1ccccn1.[Sm+3]` was tested, and the GI50 [1] was 44 µM, the TGI [1] was > 100 µM and the GI50 [2] was 18.7 µM. For the same compound, the TGI [2] was 55.5 µM, the GI50 [3] was 29.1 µM and the TGI [3] was > 100 µM. The GI50 [4] was 25.7 µM, the TGI [4] was > 100 µM and the GI50 [5] was 24.1 µM. The TGI [5] was 62.5 µM, the GI50 [6] was 29.3 µM and the TGI [6] was > 100 µM. For the same compound, the GI50 [7] was 23.8 µM, the TGI [7] was 73.6 µM and the GI50 [8] was 41.2 µM. The TGI [8] was > 100 µM.

With `COCCCNC(=O)C1C(=O)N(CCCOC)C(=O)/C1=N\N` (configuration not stated) the TGI [1] was > 100 µM, the TGI [2] was > 100 µM and the TGI [3] was > 100 µM. For the same compound, the TGI [4] was > 100 µM, the TGI [6] was > 100 µM and the TGI [7] was > 100 µM. The TGI [8] was > 100 µM.

In the case of `COc1ccc(OC)c(/C(C)=N/NC(N)=S)c1`, the TGI [1] is reported as > 100 µM, the TGI [2] is reported as > 100 µM and the TGI [3] is reported as > 100 µM. For the same compound, the TGI [4] was > 100 µM, the TGI [5] was > 100 µM and the TGI [6] was > 100 µM. For the same compound, the TGI [7] was > 100 µM and the TGI [8] was > 100 µM.

`C=C(c1ccc2nc(NC(=O)OC)[nH]c2c1)c1cccs1` was tested, and the TGI [1] was > 100 µM, the TGI [2] was > 62.4 µM and the TGI [4] was 0.86 µM. The TGI [5] was > 94.5 µM, the TGI [6] was 7.47 µM and the TGI [7] was > 100 µM. The TGI [10] was > 100 µM and the TGI [8] was > 45.2 µM.

With `Cc1sc2nc(-c3ccncc3)c(/C=N/N=C(N)N)n2c1C` the GI50 [1] was 40 µM, the TGI [1] was > 100 µM and the GI50 [2] was 54.1 µM. For the same compound, the TGI [2] was > 100 µM, the GI50 [3] was 18.2 µM and the TGI [3] was > 100 µM. For the same compound, the GI50 [9] was 30.7 µM, the TGI [9] was > 100 µM and the GI50 [5] was 26.8 µM. The TGI [5] was 84.6 µM, the GI50 [6] was 49.7 µM and the TGI [6] was > 100 µM. The GI50 [10] was 50.8 µM, the TGI [10] was > 100 µM and the GI50 [8] was 27.7 µM. It also gave a TGI [8] of 81.8 µM.

For `O=c1nc(/C=C/c2ccccc2Cl)cc2n1CCN2CCO`, the TGI [1] was > 100 µM, the TGI [2] was > 100 µM and the TGI [3] was > 100 µM. For the same compound, the TGI [5] was > 100 µM, the TGI [6] was > 100 µM and the TGI [8] was > 100 µM.
